Results: patent US20070259874A1, “Phosphodiesterase Inhibitors” (priority 2003, published 2007)

melting point	SMILES
105 to 106 °C	COc1ccc(C2=NOC(C)(c3noc(C4CC4)n3)C2)cc1OC1CCCC1 (centres unmarked) [Compound No. 60, 3-[3-(3-Cyclopentyloxy-4-methoxyphenyl)-5-methyl-4,5-dihydro-isoxazol-5-yl]-5-cyclopropyl-[1,2,4]oxadiazole]
121 to 122 °C	COc1cccc(-c2nc(C3(C)CC(c4ccc(OC)c(OC5CCCC5)c4)=NO3)no2)c1 (centres unmarked) [Compound No. 74, 3-[3-(3-Cyclopentyloxy-4-methoxyphenyl)-5-methyl-4,5-dihydro-isoxazol-5-yl]-5-(3-methoxy-phenyl)-[1,2,4]oxadiazole]
113.5 to 114.9 °C	COc1ccc(C2=NOC(C)(c3noc(-c4ccc(Cl)c(Cl)c4)n3)C2)cc1OC1CCCC1 (centres unmarked) [Compound No. 79, 3-[3-(3-Cyclopentyloxy-4-methoxyphenyl)-5-methyl-4,5-dihydro-isoxazol-5-yl]-5-(3,4-dichloro-phenyl)-[1,2,4]oxadiazole]
138.5 to 139 °C	CCOc1ccccc1-c1nc(C2(C)CC(c3ccc(OC)c(OC4CCCC4)c3)=NO2)no1 (centres unmarked) [Compound No. 59, 3-[3-(3-Cyclopentyloxy-4-methoxyphenyl)-5-methyl-4,5-dihydro-isoxazol-5-yl]-5-(2-ethoxy-phenyl)-[1,2,4]oxadiazole]
122 °C	COc1ccc(C2=NOC(C)(c3noc(-c4ccccc4Cl)n3)C2)cc1OC1CCCC1 (centres unmarked) [Compound No. 76, 5-(2-Chlorophenyl)-3-[3-(3-cyclopentyloxy-4-methoxyphenyl)-5-methyl-4,5-dihydro-isoxazol-5-yl]-[1,2,4]oxadiazole]
